Assay results as given in US8642609B2, “Modulators of ATP-binding cassette transporters” (Vertex Pharmaceuticals Incorporated, priority 2003, dated 2014).

Molecular target: T1, ΔF508-CFTR (Homo sapiens, UniProt P13569, DEL508-508)
T1 construct: expressed in transfected cells
Assay: Membrane potential optical assay (FRET/VIPR), identification of correction compounds
Format: cell-based
Settings: for Emax: relative efficacy
Procedure, shortened: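 NIH3T3 cells stably expressing ΔF508-CFTR incubated 16 hrs at 37° C in serum-free medium with test compound; 27° C incubation as positive control. CFTR then activated with 10 μM forskolin plus 20 μM genistein in Cl^−-free medium; depolarization read by DiSBAC2(3)/CC2-DMPE FRET on VIPR.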

T1 sequence (P13569 with tags, fused parts or gaps DEL508-508): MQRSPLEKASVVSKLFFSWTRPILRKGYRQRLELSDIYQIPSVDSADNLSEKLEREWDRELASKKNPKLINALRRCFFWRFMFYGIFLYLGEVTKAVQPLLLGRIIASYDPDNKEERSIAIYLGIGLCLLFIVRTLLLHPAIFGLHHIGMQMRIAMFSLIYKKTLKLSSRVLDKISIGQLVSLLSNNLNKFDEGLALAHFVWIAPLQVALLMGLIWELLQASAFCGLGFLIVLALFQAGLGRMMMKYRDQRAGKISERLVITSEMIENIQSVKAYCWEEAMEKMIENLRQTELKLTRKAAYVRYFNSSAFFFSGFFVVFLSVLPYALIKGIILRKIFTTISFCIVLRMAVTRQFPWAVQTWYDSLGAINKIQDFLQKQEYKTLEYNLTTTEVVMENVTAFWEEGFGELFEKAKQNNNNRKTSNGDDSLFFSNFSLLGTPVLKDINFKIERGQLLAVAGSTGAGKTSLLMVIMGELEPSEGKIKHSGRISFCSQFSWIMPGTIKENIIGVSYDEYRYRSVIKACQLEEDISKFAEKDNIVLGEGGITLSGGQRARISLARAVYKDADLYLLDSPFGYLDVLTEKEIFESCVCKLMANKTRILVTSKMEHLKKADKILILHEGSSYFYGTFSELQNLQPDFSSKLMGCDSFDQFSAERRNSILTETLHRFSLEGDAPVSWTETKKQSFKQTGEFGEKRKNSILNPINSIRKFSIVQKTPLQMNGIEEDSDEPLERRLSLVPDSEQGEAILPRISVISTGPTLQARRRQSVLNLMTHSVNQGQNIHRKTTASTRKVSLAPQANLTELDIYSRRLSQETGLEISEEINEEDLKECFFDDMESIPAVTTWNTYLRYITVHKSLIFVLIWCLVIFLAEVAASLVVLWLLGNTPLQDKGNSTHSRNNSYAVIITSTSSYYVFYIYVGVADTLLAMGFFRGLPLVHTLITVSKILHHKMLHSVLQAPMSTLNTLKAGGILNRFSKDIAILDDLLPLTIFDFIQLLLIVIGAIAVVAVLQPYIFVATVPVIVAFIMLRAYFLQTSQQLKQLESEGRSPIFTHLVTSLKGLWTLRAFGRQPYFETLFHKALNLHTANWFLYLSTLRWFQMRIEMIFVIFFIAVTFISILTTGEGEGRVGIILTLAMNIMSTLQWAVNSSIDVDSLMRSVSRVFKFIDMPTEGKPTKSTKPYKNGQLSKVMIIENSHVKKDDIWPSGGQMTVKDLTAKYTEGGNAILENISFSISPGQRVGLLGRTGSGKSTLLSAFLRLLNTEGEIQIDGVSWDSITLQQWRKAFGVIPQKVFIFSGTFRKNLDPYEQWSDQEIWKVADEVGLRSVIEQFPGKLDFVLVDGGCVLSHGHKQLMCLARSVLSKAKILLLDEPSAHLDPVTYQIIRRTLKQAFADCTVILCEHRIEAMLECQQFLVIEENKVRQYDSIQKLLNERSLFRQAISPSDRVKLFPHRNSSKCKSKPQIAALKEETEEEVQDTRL

| EC50 [µM] | Emax [%] | SMILES |
| --- | --- | --- |
| 25 to 60 | 25 to 100 | COc1cc2nc(C(C)N3CCN(S(=O)(=O)c4ccc(Cl)cc4)CC3)n(C)c(=O)c2cc1OC (centres unmarked) [compound 283] |
| 25 to 60 | 25 to 100 | COc1cc2nc(C(C)N3CCN(S(=O)(=O)c4ccc(Br)cc4)CC3)n(C)c(=O)c2cc1OC (centres unmarked) [compound 284] |
| 25 to 60 | 25 to 100 | COc1ccc(S(=O)(=O)N2CCN(C(C)c3nc4cc(OC)c(OC)cc4c(=O)n3C)CC2)cc1 (centres unmarked) [compound 285] |
| 25 to 60 | 25 to 100 | COc1cc2nc(C(C)N3CCN(S(=O)(=O)c4ccc(C)cc4)CC3)n(C)c(=O)c2cc1OC (centres unmarked) [compound 286] |
| 25 to 60 | 25 to 100 | CC(=O)NCCn1c(C(C)N2CCN(S(=O)(=O)c3ccc(Br)cc3)CC2)nc2ccccc2c1=O (centres unmarked) [compound 287] |
| 25 to 60 | < 25 | COc1ccc(S(=O)(=O)N2CCN(C(C)c3nc4ccccc4c(=O)n3CCNC(C)=O)CC2)cc1 (centres unmarked) [compound 288] |
| 25 to 60 | 25 to 100 | CC(=O)NCCn1c(C(C)N2CCN(S(=O)(=O)c3ccc(Cl)cc3)CC2)nc2ccccc2c1=O (centres unmarked) [compound 289] |
| 25 to 60 | 25 to 100 | Cc1c(S(=O)(=O)N2CCN(C(C)c3nc4ccccc4c(=O)n3C)CC2)sc2ccc(F)cc12 (centres unmarked) [compound 290] |
| 25 to 60 | < 25 | CC(c1nc2ccccc2c(=O)n1C)N1CCN(S(=O)(=O)c2ccc(C(N)=O)cc2)CC1 (centres unmarked) [compound 291] |
| 25 to 60 | < 25 | CC(c1nc2ccccc2c(=O)n1C)N1CCN(S(=O)(=O)N(C)C)CC1 (centres unmarked) [compound 292] |
| 25 to 60 | > 100 | CC(c1nc2ccccc2c(=O)n1C)N1CCN(S(=O)(=O)c2ccc(OC(F)F)cc2)CC1 (centres unmarked) [compound 293] |
| 25 to 60 | 25 to 100 | COc1ccc(S(=O)(=O)N2CCN(C(C)c3nc(OCC4COCO4)c4ccccc4n3)CC2)cc1 (centres unmarked) [compound 294] |
| 25 to 60 | 25 to 100 | COCCOc1nc(C(C)N2CCN(S(=O)(=O)c3ccc(OC)cc3)CC2)nc2ccccc12 (centres unmarked) [compound 295] |
| 10 to 25 | > 100 | COc1ccc(S(=O)(=O)N2CCN(C(C)c3nc(OCC4(C)COCOC4)c4ccccc4n3)CC2)cc1 (centres unmarked) [compound 296] |
| < 10 | 25 to 100 | COc1ccc(S(=O)(=O)N2CCN(C(C)c3nc(Oc4ccncc4)c4ccccc4n3)CC2)cc1 (centres unmarked) [compound 297] |
| < 10 | > 100 | COc1ccc(S(=O)(=O)N2CCN(C(C)c3nc(OC4CCCCC4)c4ccccc4n3)CC2)cc1 (centres unmarked) [compound 298] |
| 10 to 25 | 25 to 100 | COc1ccc(S(=O)(=O)N2CCN(C(C)c3nc(OCCN4CCCC4)c4ccccc4n3)CC2)cc1 (centres unmarked) [compound 299] |
| 25 to 60 | > 100 | COc1ccc(S(=O)(=O)N2CCN(C(C)c3nc(OC4CCOCC4)c4ccccc4n3)CC2)cc1 (centres unmarked) [compound 300] |
| 25 to 60 | 25 to 100 | COc1ccc(S(=O)(=O)N2CCN(C(C)c3nc(OCCN(C)C)c4ccccc4n3)CC2)cc1 (centres unmarked) [compound 301] |
| < 10 | > 100 | COc1ccc(S(=O)(=O)N2CCN(C(C)c3nc(N4CCCCC4)c4ccccc4n3)CC2)cc1 (centres unmarked) [compound 302] |
| < 10 | > 100 | COc1ccc(S(=O)(=O)N2CCN(C(C)c3nc(NC4CCCC4)c4ccccc4n3)CC2)cc1 (centres unmarked) [compound 303] |
| < 10 | 25 to 100 | COc1ccc(S(=O)(=O)N2CCN(C(C)c3nc(NC4CCCCC4)c4ccccc4n3)CC2)cc1 (centres unmarked) [compound 304] |
| < 10 | 25 to 100 | COc1ccc(S(=O)(=O)N2CCN(C(C)c3nc(N4CCCC(C)C4)c4ccccc4n3)CC2)cc1 (centres unmarked) [compound 305] |
| 25 to 60 | 25 to 100 | CC(c1nc2ccccc2c(=O)n1C)N(C)C1CCN(S(=O)(=O)c2ccc(Br)cc2)CC1 (centres unmarked) [compound 306] |
| 25 to 60 | 25 to 100 | COc1ccc(S(=O)(=O)Nc2ccc(NC(C)c3nc4ccccc4c(=O)n3C)cc2)cc1 (centres unmarked) [compound 307] |
